According to patent publication US4332794A, “6"-Deoxydibekacin, 4",6"-dideoxydibekacin and 1-N-aminoacyl derivatives thereof, and the production of these new compounds” (Zaidan Hojin Biseibutsu Kagaku Kenkyu Kai, priority 1979, dated 1982):
Converted amounts (≈) assume the structure as drawn.

What was measured:
[1] = tested on: Escherichia coli K-12 C 600R/35; assay: MIC, serial dilution on nutrient agar; assay type: cell-based; conditions: K12C600R/35, 37° C., 18 hours
Procedure: (§1) The minimum inhibitory concentrations (mcg/ml) of 6"-deoxydibekacin (abbreviated as 6"-DDKB), 4",6"-dideoxydibekacin (abbreviated as 4",6"-DDKB), 1-N-(L-4-amino-2-hydroxybutyryl)-6"-deoxydibekacin (abbreviated as AHB-6"-DDKB) and 1-N-(L-4-amino-2-hydroxybutyryl)-4",6"-dideoxydibekacin (abbreviated as AHB-4",6"-DDKB) of this invention against various microorganisms were determined according to serial dilution method on a nutrient agar medium at 37° C., the estimation being made after 18 hours incubation. For comparison purpose, the minimum inhibitory concentrations of dibekacin (abbreviated as DKB) were also determined in the same manner as stated above.

[2] = tested on: Escherichia coli K-12 J5B 11-2; assay: MIC, serial dilution on nutrient agar; assay type: cell-based; conditions: K12J5B112, 37° C., 18 hours
Procedure: as §1

[3] = tested on: Escherichia coli K-12 ML 1629; assay: MIC, serial dilution on nutrient agar; assay type: cell-based; conditions: K12ML1629, 37° C., 18 hours
Procedure: as §1

[4] = tested on: Escherichia coli K-12 ML 1630; assay: MIC, serial dilution on nutrient agar; assay type: cell-based; conditions: K12ML1630, 37° C., 18 hours
Procedure: as §1

[5] = tested on: Klebsiella pneumoniae PCI 602; assay: MIC, serial dilution on nutrient agar; assay type: cell-based; conditions: PCI602, 37° C., 18 hours
Procedure: as §1

Proteus vulgaris OX19 = assay: MIC, serial dilution on nutrient agar; assay type: cell-based; conditions: 37° C., 18 hours
Procedure: as §1

Providencia 2991 = assay: MIC, serial dilution on nutrient agar; assay type: cell-based; conditions: 37° C., 18 hours
Procedure: as §1

[6] = tested on: Pseudomonas aeruginosa 21-75; assay: MIC, serial dilution on nutrient agar; assay type: cell-based; conditions: 2175, 37° C., 18 hours
Procedure: as §1

[7] = tested on: Pseudomonas aeruginosa GN315; assay: MIC, serial dilution on nutrient agar; assay type: cell-based; conditions: 37° C., 18 hours
Procedure: as §1

[8] = tested on: Pseudomonas maltophilia GN907; assay: MIC, serial dilution on nutrient agar; assay type: cell-based; conditions: Stenotrophomonas maltophilia, 37° C., 18 hours
Procedure: as §1

Serratia 4 = assay: MIC, serial dilution on nutrient agar; assay type: cell-based; conditions: 37° C., 18 hours
Procedure: as §1

Serratia SOU = assay: MIC, serial dilution on nutrient agar; assay type: cell-based; conditions: 37° C., 18 hours
Procedure: as §1

Serratia marcescens = assay: MIC, serial dilution on nutrient agar; assay type: cell-based; conditions: 37° C., 18 hours
Procedure: as §1

[9] = tested on: Shigella flexneri 4b JS11811; assay: MIC, serial dilution on nutrient agar; assay type: cell-based; conditions: 4BJS11811, 37° C., 18 hours
Procedure: as §1

Shigella sonnei JS11746 = assay: MIC, serial dilution on nutrient agar; assay type: cell-based; conditions: 37° C., 18 hours
Procedure: as §1

[10] = tested on: Staphylococcus aureus 209P; assay: MIC, serial dilution on nutrient agar; assay type: cell-based; conditions: 37° C., 18 hours
Procedure: as §1

[11] = tested on: kanamycin-sensitive and resistant bacteria; assay: antibacterial activity compared to dibekacin; assay type: cell-based
Procedure: as §1

[12] = tested on: kanamycin-sensitive bacteria and various kanamycin-resistant bacteria; conditions: prior art; cited from earlier work

Row | Structure (SMILES) | MIC [1] | MIC [2] | MIC [3] | MIC [4] | MIC [5] | MIC (Proteus vulgaris OX19) | MIC (Providencia 2991) | MIC [6] | MIC [7] | MIC [8] | MIC (Serratia 4) | MIC (Serratia SOU) | MIC (Serratia marcescens) | MIC [9] | MIC (Shigella sonnei JS11746) | MIC [10] | antibacterial activity compared to dibekacin (DKB) [11] | antibacterial activity [12]
1 | C[C@@H]1C[C@H](N)[C@@H](O)[C@@H](O[C@@H]2[C@@H](O)[C@H](O[C@H]3O[C@H](CN)CC[C@H]3N)[C@@H](N)C[C@H]2N)O1 [4",6"-DDKB, 4",6"-dideoxydibekacin] | 50 µg/mL (≈ 119 µM) | 3.13 µg/mL (≈ 7.46 µM) | 3.13 µg/mL (≈ 7.46 µM) | 3.13 µg/mL (≈ 7.46 µM) | 0.78 µg/mL (≈ 1.86 µM) | 0.78 µg/mL (≈ 1.86 µM) | > 100 µg/mL | > 100 µg/mL | > 100 µg/mL | > 100 µg/mL | 100 µg/mL (≈ 238 µM) | > 100 µg/mL | 100 µg/mL (≈ 238 µM) | 3.13 µg/mL (≈ 7.46 µM) | 3.13 µg/mL (≈ 7.46 µM) | 0.39 µg/mL (≈ 0.93 µM) | same or more active | –
2 | C[C@H]1O[C@H](O[C@@H]2[C@@H](O)[C@H](O[C@H]3O[C@H](CN)CC[C@H]3N)[C@@H](N)C[C@H]2N)[C@H](O)[C@@H](N)[C@@H]1O [6"-DDKB, 6"-deoxydibekacin] | 3.13 µg/mL (≈ 7.19 µM) | 1.56 µg/mL (≈ 3.58 µM) | 1.56 µg/mL (≈ 3.58 µM) | 3.13 µg/mL (≈ 7.19 µM) | 1.56 µg/mL (≈ 3.58 µM) | 0.39 µg/mL (≈ 0.895 µM) | > 100 µg/mL | > 100 µg/mL | 100 µg/mL (≈ 230 µM) | > 100 µg/mL | 100 µg/mL (≈ 230 µM) | > 100 µg/mL | 100 µg/mL (≈ 230 µM) | 3.13 µg/mL (≈ 7.19 µM) | 3.13 µg/mL (≈ 7.19 µM) | 0.78 µg/mL (≈ 1.79 µM) | same or more active | –
3 | C[C@@H]1C[C@H](N)[C@@H](O)[C@@H](O[C@@H]2[C@@H](O)[C@H](O[C@H]3O[C@H](CN)CC[C@H]3N)[C@@H](N)C[C@H]2NC(=O)[C@@H](O)CCN)O1 [AHB-4",6"-DDKB, 1-N-(L-4-amino-2-hydroxybutyryl)-4",6"-dideoxydibekacin] | 0.78 µg/mL (≈ 1.5 µM) | 1.56 µg/mL (≈ 3 µM) | 1.56 µg/mL (≈ 3 µM) | 1.56 µg/mL (≈ 3 µM) | 0.78 µg/mL (≈ 1.5 µM) | 0.39 µg/mL (≈ 0.749 µM) | 100 µg/mL (≈ 192 µM) | > 100 µg/mL | 100 µg/mL (≈ 192 µM) | > 100 µg/mL | 6.25 µg/mL (≈ 12 µM) | > 100 µg/mL | 100 µg/mL (≈ 192 µM) | 6.25 µg/mL (≈ 12 µM) | 3.13 µg/mL (≈ 6.01 µM) | 0.78 µg/mL (≈ 1.5 µM) | – | –
4 | C[C@H]1O[C@H](O[C@@H]2[C@@H](O)[C@H](O[C@H]3O[C@H](CN)CC[C@H]3N)[C@@H](N)C[C@H]2NC(=O)[C@@H](O)CCN)[C@H](O)[C@@H](N)[C@@H]1O [AHB-6"-DDKB, 1-N-(L-4-amino-2-hydroxybutyryl)-6"-deoxydibekacin] | 1.56 µg/mL (≈ 2.91 µM) | 1.56 µg/mL (≈ 2.91 µM) | 1.56 µg/mL (≈ 2.91 µM) | 3.13 µg/mL (≈ 5.83 µM) | 1.56 µg/mL (≈ 2.91 µM) | 0.78 µg/mL (≈ 1.45 µM) | 100 µg/mL (≈ 186 µM) | 100 µg/mL (≈ 186 µM) | 50 µg/mL (≈ 93.2 µM) | > 100 µg/mL | 6.25 µg/mL (≈ 11.6 µM) | 100 µg/mL (≈ 186 µM) | 50 µg/mL (≈ 93.2 µM) | 6.25 µg/mL (≈ 11.6 µM) | 6.25 µg/mL (≈ 11.6 µM) | 1.56 µg/mL (≈ 2.91 µM) | – | –
5 | NC[C@@H]1CC[C@@H](N)[C@@H](O[C@H]2[C@H](O)[C@@H](O[C@H]3O[C@H](CO)[C@@H](O)[C@H](N)[C@H]3O)[C@H](N)C[C@@H]2N)O1 [DKB, 3',4'-dideoxykanamycin B, reference compound] | 1.56 µg/mL (≈ 3.45 µM) | 3.13 µg/mL (≈ 6.93 µM) | 3.13 µg/mL (≈ 6.93 µM) | 3.13 µg/mL (≈ 6.93 µM) | 0.78 µg/mL (≈ 1.73 µM) | 0.78 µg/mL (≈ 1.73 µM) | > 100 µg/mL | > 100 µg/mL | > 100 µg/mL | > 100 µg/mL | 100 µg/mL (≈ 221 µM) | > 100 µg/mL | 100 µg/mL (≈ 221 µM) | 3.13 µg/mL (≈ 6.93 µM) | 6.25 µg/mL (≈ 13.8 µM) | 0.78 µg/mL (≈ 1.73 µM) | – | active against the kanamycin-sensitive bacteria and also against various kanamycin-resistant bacteria
